# Experimental data: patent US20150105252A1, “SUBSTITUTED PYRAZOLES AS HERBICIDES” (E I DU PONT DE NEMOURS AND COMPANY, priority 2013, published 2015)
# Legend:
# corn = assay: Test A postemergence; format: in vivo, Zea mays
# How it was run: (§1)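 Visual injury ratings, 0 = no effect to 100 = complete control, taken about 10 days after treatment against untreated controls. Test chemicals, in a non-phytotoxic surfactant-containing solvent, were sprayed onto soil preemergence or onto one- to two-leaf plants (2–10 cm) postemergence, in loam–sand soil under greenhouse conditions.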
# morningglory [1] = assay: Test A preemergence; format: in vivo, Ipomoea spp.; details: for Morningglory plant response rating (0 to 100 scale): visual injury approx. 10 days after treatment
# How it was run: as §1
# crabgrass, large = assay: Test C preemergence; format: in vivo, Digitaria sanguinalis
# How it was run: (§2)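 Seeds sown in loam–sand blend and treated preemergence with test chemicals in non-phytotoxic solvent with surfactant; postemergence plants in peat-based medium, treated at 2–18 cm (1- to 4-leaf stage). Greenhouse 13 to 15 days, then visual rating versus controls, 0 (no effect) to 100 (complete control).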
# ryegrass, Italian = assay: Test C preemergence; format: in vivo, Lolium multiflorum
# Excerpt: (§3) Seeds of plant species selected from blackgrass (Alopecurus myosuroides), ryegrass, Italian (Italian ryegrass, Lolium multiflorum), wheat (winter wheat, Triticum aestivum), galium (catchweed bedstraw, Galium aparine), corn (Zea mays), crabgrass, large (large crabgrass, Digitaria sanguinalis), foxtail, giant (giant foxtail, Setaria faberii), johnsongrass (Sorghum halepense), lambsquarters (Chenopodium album), morningglory (Ipomoea coccinea), nutsedge, yellow (yellow nutsedge, Cyperus esculentus), pigweed (redroot pigweed, Amaranthus retroflexus), ragweed (common ragweed, Ambrosia elation), soybean (Glycine max), barnyardgrass (Echinochloa crus-galli), oilseed rape (Brassica napus), waterhemp (common waterhemp, Amaranthus rudis), oat, wild (wild oat, Avena fatua), kochia (Kochia scoparia), Surinam grass (Brachiaria decumbens), foxtail, green (green foxtail, Setaria viridis), goosegrass (Eleusine indica), bromegrass, downy (downy bromegrass, Bromus tectorum), nightshade (eastern black nightshade, Solanum ptycanthum), cocklebur (common cocklebur, Xanthium strumarium), cupgrass, woolly (woolly cupgrass, Eriochloa villosa), bermudagrass (Cynodon dactylon), sunflower, (common oilseed sunflower, Helianthus annuus), Russian thistle (Salsola kali), and velvetleaf (Abutilon theophrasti) were planted into a blend of loam soil and sand and treated preemergence with test chemicals formulated in a non-phytotoxic solvent mixture which included a surfactant.
# (§4) At the same time, plants selected from these crop and weed species and also chickweed (common chickweed, Stellaria media), canarygrass (littleseed canarygrass, Phalaris minor), and deadnettle (henbit deadnettle, Lamium amplexicaule), were planted in pots containing Redi-Earth® planting medium (Scotts Company, 14111 Scottslawn Road, Marysville, Ohio 43041) comprising spaghnum peat moss, vermiculite, wetting agent and starter nutrients and treated with postemergence applications of test chemicals formulated in the same manner. Plants ranged in height from 2 to 18 cm (1- to 4-leaf stage) for postemergence treatments. Treated plants and controls were maintained in a greenhouse for 13 to 15 days, after which time all species were compared to controls and visually evaluated. Plant response ratings, summarized in Table C, are based on a scale of 0 to 100 where 0 is no effect and 100 is complete control. A dash (-) response means no test result.
# sedge, umbrella = assay: Test B flood; format: in vivo, Cyperus difformis; details: 250 g ai/ha, visual rating on 0 to 100 scale (0 no effect, 100 complete control), 13 to 15 days
# How it was run: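 Response scored visually, 0–100 relative to controls, 13–15 days after the compound was applied into paddy water; plants were at the 2-leaf stage in pots kept flooded to 3 cm.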
# galium = assay: Test C preemergence; format: in vivo, Galium aparine
# Excerpt: as §3, §4
# ragweed = assay: Test C postemergence; format: in vivo, Ambrosia elation; details: postemergence
# Excerpt: as §3, §4
# oat, wild = assay: Test C postemergence; format: in vivo, Avena fatua; details: for Plant response rating, Oat, Wild: postemergence
# Excerpt: as §3, §4
# foxtail, giant = assay: Test C postemergence; format: in vivo, Setaria faberii; details: for Plant response rating, Foxtail, Giant: postemergence
# How it was run: as §2
# wheat = assay: Test C postemergence; format: in vivo, Triticum aestivum; details: postemergence
# How it was run: as §2
# morningglory [2] = assay: Test C postemergence; format: in vivo, Ipomoea coccinea; details: for Plant response rating, Morningglory: postemergence
# Excerpt: as §3, §4
# pigweed = assay: Test C postemergence; format: in vivo, Amaranthus retroflexus; details: for Plant response rating, Pigweed: postemergence
# Excerpt: as §3, §4
# chickweed = assay: Test C postemergence; format: in vivo, Stellaria media; details: for Plant response rating, Chickweed: postemergence
# How it was run: as §2
# [3] = Postemergence, 500 g ai/ha, 0 to 100 scale (0 no effect, 100 complete control)
# [4] = postemergence, 125 g ai/ha, about 10 days, visual rating on 0 to 100 scale (0 no effect, 100 complete control)
# [5] = preemergence, 125 g ai/ha, visual injury, 0 to 100 scale, approx. 10 days
# [6] = preemergence, 500 g ai/ha, visual injury after approx. 10 days, 0 to 100 scale (0 no effect, 100 complete control)
# [7] = Preemergence, 4 g ai/ha, scale 0 to 100
# [8] = Preemergence, 8 g ai/ha, scale 0 to 100
# [9] = Preemergence, 16 g ai/ha, scale 0 to 100
# [10] = preemergence, 31 g ai/ha, visual rating, scale 0 to 100 (0 no effect, 100 complete control), 13 to 15 days
# [11] = preemergence, 62 g ai/ha, scale 0 to 100 (0 no effect, 100 complete control), 13 to 15 days
# [12] = preemergence, 125 g ai/ha, 13 to 15 days, scale 0 to 100, 0 = no effect, 100 = complete control
# [13] = preemergence, 250 g ai/ha, scale 0 to 100, 0 is no effect, 100 is complete control
# [14] = 250 g ai/ha, scale 0 to 100 (0 no effect, 100 complete control)
# [15] = 62 g ai/ha, scale 0 to 100, 0 no effect, 100 complete control
# [16] = 125 g ai/ha, scale 0 to 100, 0 no effect, 100 complete control
# [17] = preemergence, 31 g ai/ha, scale 0 to 100 (0 no effect, 100 complete control), 13 to 15 days
# [18] = preemergence, 62 g ai/ha, 13 to 15 days, scale 0 to 100, 0 = no effect, 100 = complete control
# [19] = preemergence, 125 g ai/ha, scale 0 to 100, 0 is no effect, 100 is complete control
# [20] = Postemergence, 31 g ai/ha, scale 0 to 100
smiles,measurement,setting,value
CCOc1cc(C(=O)NCC(F)(F)F)nn1Cc1cc(C(F)(F)F)nn1C [Compound 140],Corn plant response rating,corn; [3],80
same,Corn plant response rating,corn; [4],50
same,Morningglory plant response rating,morningglory [1]; [5],80
same,Morningglory plant response rating,morningglory [1]; [6],100
same,"Plant response rating, Crabgrass, Large","crabgrass, large; [7]",45
same,"Plant response rating, Crabgrass, Large","crabgrass, large; [8]",55
same,"Plant response rating, Crabgrass, Large","crabgrass, large; [9]",75
same,"Crabgrass, Large plant response rating","crabgrass, large; [10]",98
same,"Plant response rating, Ryegrass, Italian","ryegrass, Italian; [7]",0
same,"Plant response rating, Ryegrass, Italian","ryegrass, Italian; [8]",5
same,"Plant response rating, Ryegrass, Italian","ryegrass, Italian; [9]",10
same,"Ryegrass, Italian plant response rating","ryegrass, Italian; [10]",55
same,"Plant response rating, Sedge, Umbrella","sedge, umbrella",95
same,"Plant response rating, Galium",galium; [7],50
same,"Plant response rating, Galium",galium; [8],60
same,"Plant response rating, Galium",galium; [9],98
same,Galium plant response rating,galium; [10],100
O=C(NCC(F)(F)F)c1cc(CCF)n(Cc2ccnc(C(F)(F)F)c2)n1 [Compound 175],Corn plant response rating,corn; [3],90
same,Corn plant response rating,corn; [4],60
same,Morningglory plant response rating (0 to 100 scale),"morningglory [1]; preemergence, 125 g ai/ha",100
same,Morningglory plant response rating,morningglory [1]; [6],100
same,"Crabgrass, Large plant response rating","crabgrass, large; [10]",100
same,"Crabgrass, Large plant response rating","crabgrass, large; [11]",100
same,"Plant response rating, Crabgrass, Large","crabgrass, large; [12]",100
same,"Crabgrass, Large plant response rating","crabgrass, large; [13]",100
same,"Ryegrass, Italian plant response rating","ryegrass, Italian; [10]",30
same,"Ryegrass, Italian plant response rating","ryegrass, Italian; [11]",85
same,"Plant response rating, Ryegrass, Italian","ryegrass, Italian; [12]",90
same,"Ryegrass, Italian plant response rating","ryegrass, Italian; [13]",90
same,"Plant response rating, Sedge, Umbrella","sedge, umbrella",85
same,Galium plant response rating,galium; [10],85
same,Galium plant response rating,galium; [11],100
same,"Plant response rating, Galium",galium; [12],100
same,Galium plant response rating,galium; [13],100
CCc1cc(C(=O)NOC(C)C)nn1Cc1cccc(OC(F)(F)F)c1 [Compound 70],Corn plant response rating,"corn; Postemergence, 500 g ai/ha, visual rating after approx. 10 days, 0 to 100 scale (0 no effect, 100 complete control)",70
same,Corn plant response rating,corn; [4],60
same,"Plant response rating, Ragweed",ragweed; [14],65
same,"Plant response rating, Ragweed",ragweed; [15],60
same,"Plant response rating, Ragweed",ragweed; [16],65
same,Morningglory plant response rating,"morningglory [1]; Preemergence, 500 g ai/ha, 0 to 100 scale, 0 no effect, 100 complete control",100
same,Morningglory plant response rating,morningglory [1]; [5],80
same,"Plant response rating (scale of 0 to 100), Crabgrass, Large","crabgrass, large; Preemergence, 250 g ai/ha",100
same,"Crabgrass, Large plant response rating","crabgrass, large; [17]",95
same,"Plant response rating, Crabgrass, Large","crabgrass, large; [18]",98
same,"Crabgrass, Large plant response rating","crabgrass, large; [19]",98
same,"Plant response rating (scale of 0 to 100), Ryegrass, Italian","ryegrass, Italian; Preemergence, 250 g ai/ha",80
same,"Ryegrass, Italian plant response rating","ryegrass, Italian; [17]",20
same,"Plant response rating, Ryegrass, Italian","ryegrass, Italian; [18]",30
same,"Ryegrass, Italian plant response rating","ryegrass, Italian; [19]",60
same,"Oat, Wild plant response rating","oat, wild; [20]",20
same,"Plant response rating, Oat, Wild","oat, wild; [14]",35
same,"Plant response rating, Oat, Wild","oat, wild; [15]",20
same,"Plant response rating, Oat, Wild","oat, wild; [16]",30
same,"Foxtail, Giant plant response rating","foxtail, giant; [20]",5
same,"Plant response rating, Foxtail, Giant","foxtail, giant; [14]",25
same,"Plant response rating, Foxtail, Giant","foxtail, giant; [15]",10
same,"Plant response rating, Foxtail, Giant","foxtail, giant; [16]",15
same,"Plant response rating (scale of 0 to 100), Galium","galium; Preemergence, 250 g ai/ha",98
same,Galium plant response rating,galium; [17],65
same,"Plant response rating, Galium",galium; [18],95
same,Galium plant response rating,galium; [19],98
same,Wheat plant response rating,"wheat; 62 g ai/ha, scale 0 to 100",15
same,"Plant response rating, Wheat",wheat; [14],25
same,"Plant response rating, Wheat",wheat; [16],20
same,Morningglory plant response rating,morningglory [2]; [20],5
same,"Plant response rating, Morningglory",morningglory [2]; [14],85
same,"Plant response rating, Morningglory",morningglory [2]; [15],45
same,"Plant response rating, Morningglory",morningglory [2]; [16],75
same,Pigweed plant response rating,pigweed; [20],60
same,"Plant response rating, Pigweed",pigweed; [14],75
same,"Plant response rating, Pigweed",pigweed; [15],65
same,"Plant response rating, Pigweed",pigweed; [16],70
same,Chickweed plant response rating,chickweed; [20],45
same,"Plant response rating, Chickweed",chickweed; [14],65
same,"Plant response rating, Chickweed",chickweed; [15],45
same,"Plant response rating, Chickweed",chickweed; [16],50
O=C(NC1CC1)c1cc(CCF)n(Cc2ccnc(C(F)(F)F)c2)n1 [Compound 176],Corn plant response rating,corn; [3],80
same,Corn plant response rating,corn; [4],40
same,Morningglory plant response rating (0 to 100 scale),"morningglory [1]; preemergence, 125 g ai/ha",80
same,Morningglory plant response rating,morningglory [1]; [6],100
same,"Crabgrass, Large plant response rating","crabgrass, large; [10]",98
same,"Crabgrass, Large plant response rating","crabgrass, large; [11]",95
same,"Plant response rating, Crabgrass, Large","crabgrass, large; [12]",100
same,"Crabgrass, Large plant response rating","crabgrass, large; [13]",100
same,"Ryegrass, Italian plant response rating","ryegrass, Italian; [10]",5
same,"Ryegrass, Italian plant response rating","ryegrass, Italian; [11]",10
same,"Plant response rating, Ryegrass, Italian","ryegrass, Italian; [12]",70
same,"Ryegrass, Italian plant response rating","ryegrass, Italian; [13]",85
same,"Plant response rating, Sedge, Umbrella","sedge, umbrella",80
same,Galium plant response rating,galium; [10],85
same,Galium plant response rating,galium; [11],85
same,"Plant response rating, Galium",galium; [12],98
same,Galium plant response rating,galium; [13],100
